Measurements taken from the NIST ThermoML archive (doi:10.1021/je200646r).
± gives the expanded uncertainty stated by the source.

How the values were obtained:
[1] = refractive index (Na D-line) (dimensionless); conditions: 293.15 K; 101.33 kPa; Liquid; Standard Abbe refractometry
[2] = 293.15 K; 101.33 kPa; Liquid; Vibrating tube method

SMILES | refractive index [1] | mass density [2]
CCO [ethanol] | 1.36162 ± 0.0004 | 792.05 ± 0.15 kg/m3
CC(C)O [propan-2-ol] | 1.37709 ± 0.0004 | 785.46 ± 0.15 kg/m3
CO [methanol] | 1.32862 ± 0.0004 | 791.46 ± 0.15 kg/m3
CCCCCCCCCCCC [dodecane] | 1.42155 ± 0.00045 | 749.6 ± 0.31 kg/m3
